We go through three compounds from patent US10973815B2, “Delta opioid agonist mu opioid antagonist compositions and methods for treating Parkinsons disease” (priority 2016, dated 2021).

The test system of series [1] is MPTP-lesioned cynomolgus macaques. The series is described as follows: Acute DPI-289 in combination with low-dose L-DOPA, versus high-dose L-DOPA, in MPTP-lesioned macaques with L-DOPA-induced dyskinesia. Conditions: high dose L-DOPA alone (about 30 to 31 mg/kg). In kind it is in vivo, Macaca fascicularis. An excerpt:
This study utilized female MPTP-lesioned cynomolgus macaques that have received chronic repeat-treatment with L-DOPA and manifested stable and reproducible dyskinesia, of choreic and dystonic nature, in response to subsequent L-DOPA-treatments. Eight cynomolgus monkeys (Macaca fascicularis, 7.6-13.1 years of age, 3.0-4.5 kg) were used in this study. In a prior experiment, for each individual animal a low and high dose of L-DOPA was established such that the low dose (LD1) provided modest anti-parkinsonian action (1-2 h) and elicited predominantly non-disabling dyskinesia, the high dose (LDh) provided the best anti-parkinsonian effect achievable but also elicited disabling dyskinesia and an anti-parkinsonian benefit of 2-3 h duration
The behavioral effects of acute DPI-289 administered in combination with low-dose L-DOPA (LD1) were assessed. Also higher dose of L-DOPA was also assessed without the addition of DPI-289. The low dose (LD1) was about 10 to 11 mg/kg of L-DOPA which is considered to be sub-optimal in terms of anti-parkinsonian benefit. The dose of DPI-289 was 20 mg/kg and the high dose of L-DOPA was about 30 to 31 mg/kg and considered to an optimal does in terms of anti-parkinsonian benefit but with disabling dyskinesia. The DPI-289 was administered one (1) hour prior to the L-DOPA and start of observation. Activity counts were collected and parkinsonian disability and dyskinesia was assessed via post-hoc analysis of video-recordings by a movement disorder neurologist blinded to treatment.
On the day before behavioral observations, food was removed overnight, from 5 p.m. On days of behavioral assessment, treatment was administered to the animals in their home cage at approximately 9 a.m. A 6 h period of observation then commenced 1 h after oral dosing.
The animals were rendered parkinsonian by once daily subcutaneous injection of 0.2 mg/kg MPTP, administered for 8-12 days, until the first appearance of parkinsonism symptoms. After this time, a parkinsonian syndrome reached a moderate to marked level, over approximately 30 days, and stabilized. Additional administrations of MPTP were given to some animals to titrate to similar degrees of parkinsonism in individuals across the group. […] Sixty days after commencing MPTP administration, L-DOPA (25 mg/kg) was administered orally twice daily for at least two months. L-DOPA was given with the decarboxylase inhibitor benserazide (as Madopar™). This treatment leads to the development of motor fluctuations, including dyskinesia.

Series [2] deals with unilateral 6-OHDA-lesioned Rats. In words: Postural asymmetry and dyskinesia (AIMs) on repeated dosing in unilateral 6-OHDA-lesioned rats. It counts as in vivo, rat. Conditions: 6 mg/kg i.p. daily for 15 days.
The test system of the next series is mice. The following applies: cited from earlier work.
Series [3] relates to rats treated with reserpine or dopamine receptor antagonists (haloperidol or SCH23390). Conditions: 10 mg/kg i.p.; cited from earlier work.
Another series has as its system rats. Conditions: cited from earlier work.
For the next series, the system named is MPTP-treated marmosets. The following applies: similar dose levels (10 mg/kg); cited from earlier work.
Series [4] deals with MPTP-lesioned primate (marmosets) model of Parkinson's disease. Conditions: 10 mg/kg i.p.; without attenuation of the anti-parkinsonian actions of L-DOPA; cited from earlier work.

Consider `N[C@@H](Cc1ccc(O)c(O)c1)C(=O)O` [L-DOPA, reference compound], for which, in series [1], the dyskinesia entry is on record as “severe dyskinesia in the first three hours after dosage” and the parkinsonian disability result was “parkinsonian disability increased in the last four to six hours”. The postural asymmetry entry in series [2] was “reduced or reversed the postural asymmetry”.
`C=CCN1C[C@H](C)N([C@H](c2ccc(C(=O)N(CC)CC)cc2)c2cccc(OC)c2)C[C@H]1C` [SNC80]: the convulsions entry with mice is listed as “seizure-like convulsions”. Further, the “behavioral deficits (ambulatory behavior, grooming, rearing, social interaction and exploration, static investigation)” value in series [3] is recorded as “restored behavioral deficits”. Moreover, the convulsions result with rats is recorded as “seizure-like convulsions”. Besides, in the series on MPTP-treated marmosets, the “motor activity, bradykinesia and disability scores” value was “restored motor activity, bradykinesia and disability scores to normal”; the parkinsonian posture entry was “not statistically reversed”.
With `COc1cccc2c1[C@]13CCN(CC4CC4)[C@H](C2)[C@]1(OC)CCC(=O)C3` [cyprodime], the L-DOPA-induced dyskinesia entry in series [4] is reported as “reduce completely L-DOPA-induced dyskinesia”.
